Data taken from patent US6235753A, “Inhibitors of the production of S-CD23 and the secretion of TNF” (priority 1996, dated 2001).
Read-outs that look alike come from different tables or passages of the source.

Columns and labels:
CD23 proteinase = biological target: T1, CD23 proteinase (Homo sapiens, UniProt O14672); assay: RPMI 8866 cell membrane CD23 cleavage activity assay (CD23 proteinase inhibition); assay type: biochemical; conditions: RPMI 8866 cell membranes
T1 construct: Plasma membranes from RPMI 8866 cells, a human Epstein-Barr virus transformed B-cell line; endogenous in cells; host or cells: RPMI 8866 (human EBV-transformed B-cell line), enriched plasma membranes
T1 sequence (O14672 214-748): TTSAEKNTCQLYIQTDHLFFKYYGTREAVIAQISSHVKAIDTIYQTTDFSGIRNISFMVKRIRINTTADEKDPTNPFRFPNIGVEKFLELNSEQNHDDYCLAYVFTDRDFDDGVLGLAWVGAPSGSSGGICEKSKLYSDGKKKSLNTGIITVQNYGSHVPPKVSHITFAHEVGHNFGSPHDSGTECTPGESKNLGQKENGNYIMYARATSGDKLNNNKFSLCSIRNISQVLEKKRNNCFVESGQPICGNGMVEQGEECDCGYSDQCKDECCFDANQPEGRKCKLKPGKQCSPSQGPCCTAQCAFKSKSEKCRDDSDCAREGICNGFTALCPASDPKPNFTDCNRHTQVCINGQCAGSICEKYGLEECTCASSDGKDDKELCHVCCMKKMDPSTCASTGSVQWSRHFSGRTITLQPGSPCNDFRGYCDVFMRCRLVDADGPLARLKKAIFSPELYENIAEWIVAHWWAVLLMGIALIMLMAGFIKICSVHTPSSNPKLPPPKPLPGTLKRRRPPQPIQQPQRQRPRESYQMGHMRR
Experimental: Procedure 1: The ability of test compounds to inhibit the release of soluble CD23 was investigated by use of the following procedure.
Cells resuspended in homogenization buffer (20 mM HEPES pH 7.4, 150 mM NaCl, 1.5 mM MgCl2, 1 mM DTI) are broken by N2 cavitation in a Parr bomb and the plasma membrane fraction mixed with other membranes is recovered by centrifugation at 10,000×g. The light pellet is resuspended in 0.2 M potassium phosphate, pH 7.2 using 2 ml per 1-3 g wet cells and the nuclear pellet is discarded. […] The phases are separated by brief centrifugation at 1000×g and the PEG (upper) phase is collected, diluted 3-5 fold with 20 mM potassium phosphate buffer pH 7.4, and centrifuged at 100,000×g to recover membranes in that phase. The pellet is resuspended in phosphate-buffered saline and consists of 3-4 fold enriched plasma membranes as well as some other cell membranes (e.g. lysosomes, Golgi). The membranes are aliquoted and stored at -80° C.
The amount of soluble CD23 made by 0.5 ug membrane protein in a total volume of 50 ul phosphate-buffered saline is measured by EIA and compared to the amount made in the presence of various concentrations of inhibitors. Inhibitors are prepared in solutions of water or dimethylsulfoxide (DMSO) and the final DMSO concentration is not more than 2%.

[1] = biological target: T2, human recombinant collagenase (Homo sapiens, UniProt P03956); assay: Collagenase Inhibition Assay; assay type: biochemical
T2 construct: made in house; host or cells: E. coli
T2 sequence (P03956 100-469): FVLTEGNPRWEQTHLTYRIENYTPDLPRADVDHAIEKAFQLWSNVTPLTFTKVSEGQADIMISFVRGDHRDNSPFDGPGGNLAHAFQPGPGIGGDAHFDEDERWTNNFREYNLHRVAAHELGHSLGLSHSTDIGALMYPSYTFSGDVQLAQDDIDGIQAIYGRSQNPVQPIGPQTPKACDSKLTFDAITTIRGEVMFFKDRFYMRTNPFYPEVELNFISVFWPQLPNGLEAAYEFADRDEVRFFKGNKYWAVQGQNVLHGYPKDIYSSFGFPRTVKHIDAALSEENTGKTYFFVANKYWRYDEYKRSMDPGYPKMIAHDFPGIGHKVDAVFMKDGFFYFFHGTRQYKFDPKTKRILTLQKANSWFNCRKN
Text: Collagenase Inhibition Assay:
The collagen was acetylated ^3 H type 1 bovine collagen prepared by the method of Cawston and Murphy (methods in Enzymology 80, 711,1981) The samples were centrifuged to sediment undigested collagen and an aliquot of the radioactive supernatant removed for assay on a scintillation counter as a measure of hydrolysis.

TNFα = assay: Inhibition of release of TNFα from human monocytes stimulated by LPS (TNF processing inhibition); assay type: cell-based; conditions: Monocyte, read-out: TNF processing inhibition
Experimental: Procedure 3: The ability of test compounds to inhibit TNF release was investigated using the following procedure. Assay for inhibition of release of TNFα from human monocytes stimulated by lipopolysaccharide (LPS) endotoxin. […] The cell suspension is aliquoted in 24 well plates, 1 ml per well. Compounds to be tested are dissolved in neat dimethyl sulfoxide (DMSO) and added to culture with the final DMSO concentration at 0.1%. Compounds are added to cells in triplicate wells. TNFα release is stimulated by addition of LPS to the cells at a final concentration of 200 ng/ml. Appropriate control cultures are set up in triplicates also. The plates are incubated for 18-20 hrs at 37° C., 5% CO2, then centrifuged at 1000×g for 5 min. A specific ELISA for human TNFα (SmithKline Beecham) is used to measure TNF levels in the cell-free culture supernatants.

CNC(=O)[C@H](Cc1ccccc1)NC(=O)[C@H](Cc1ccc2ccccc2c1)[C@H](O)C(=O)NO [Example 2, N'-[3S-Hydroxy-4-(N-hydroxyamino)-2R-(2-naphthylmethyl)succinyl]-S-phenylalanine-N-methylamide]
inhibition at 2 µM (CD23 proteinase; at 2 uM): 90%
IC50 ([1]; 37° C., 18 h, acetylated 3H type 1 bovine collagen, read-out: Collagenase inhibition IC50): 8.6 µM
inhibition at 1 µM (TNFα; at 1 uM, human monocytes, LPS 200 ng/ml, 18-20 hrs): 45%

CNC(=O)[C@@H](NC(=O)[C@H](Cc1ccc2ccccc2c1)[C@H](O)C(=O)NO)C(C)(C)C [Example 1, N'-[3S-Hydroxy-4-(N-hydroxyamino)-2R-(2-naphthylmethyl)succinyl]-S-tert-leucine-N-methylamide]
inhibition at 1 µM (CD23 proteinase; at 1 uM): 88%
IC50 [1]: > 10 µM

CNC(=O)[C@H](Cc1ccccc1)NC(=O)[C@H](CC(C)C)[C@H](CSc1cccs1)C(=O)NO [Comparative Example, reference compound]
inhibition at 1 µM (TNFα; Homo sapiens): 76.4 ± 0.9%
